The record followed here is patent publication US20160244437A1, “SUBSTITUTED PHENYLALANINE DERIVATIVES” (BAYER PHARMA AKTIENGESELLSCHAFT, priority 2013, published 2016).

Each structure is given as a SMILES string. pIC50: −log10 of the molar value. Where a name gives a salt, the structure may show the parent alone.

The target of this experiment is T1, human factor XIa (Homo sapiens, UniProt P03951).
T1 construct: purchased Kordia
T1 sequence (P03951 388-625 limits assumed): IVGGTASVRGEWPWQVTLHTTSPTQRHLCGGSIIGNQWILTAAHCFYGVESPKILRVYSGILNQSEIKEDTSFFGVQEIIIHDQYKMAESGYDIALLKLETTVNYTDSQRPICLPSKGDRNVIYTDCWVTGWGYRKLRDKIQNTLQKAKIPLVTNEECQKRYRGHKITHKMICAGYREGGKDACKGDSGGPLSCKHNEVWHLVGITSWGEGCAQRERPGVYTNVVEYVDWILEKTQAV
T1 sequence (P03951 19-387 partner limits assumed): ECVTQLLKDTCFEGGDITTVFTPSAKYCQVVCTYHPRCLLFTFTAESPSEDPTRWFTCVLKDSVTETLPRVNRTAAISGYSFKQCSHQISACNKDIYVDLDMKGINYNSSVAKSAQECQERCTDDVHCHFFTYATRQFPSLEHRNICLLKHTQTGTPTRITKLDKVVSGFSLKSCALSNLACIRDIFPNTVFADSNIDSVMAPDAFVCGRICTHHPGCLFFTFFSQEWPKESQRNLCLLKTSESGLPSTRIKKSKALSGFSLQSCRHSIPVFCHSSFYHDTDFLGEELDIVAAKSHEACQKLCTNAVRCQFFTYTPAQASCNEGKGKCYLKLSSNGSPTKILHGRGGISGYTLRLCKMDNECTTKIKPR
Briefly: Measurement of FXIa inhibition (fluorogenic peptide substrate Boc-Glu(OBzl)-Ala-Arg-AMC). In kind it is biochemical. As to conditions: factor XIa from Kordia 0.45 nM, 15 min pre-incubation, 30 min at 22° C., fluorescence. The protocol:
The factor XIa inhibition of the substances according to the invention is determined using a biochemical test system which utilizes the reaction of a peptidic factor XIa substrate to determine the enzymatic activity of human factor XIa. Here, factor XIa cleaves from the peptic factor XIa substrate the C-terminal aminomethylcoumarin (AMC), the fluorescence of which is measured. The determinations are carried out in microtitre plates.
Test substances are dissolved in dimethyl sulphoxide and serially diluted in dimethyl sulphoxide (3000 μM to 0.0078 μM; resulting final concentrations in the test: 50 μM to 0.00013 μM). In each case 1 μl of the diluted substance solutions is placed into the wells of white microtitre plates from Greiner (384 wells). Subsequently, the following are added successively: 20 μl of assay buffer (50 mmol/l Tris buffer pH 7.4; 100 mmol/l sodium chloride; 5 mmol/l calcium chloride; 0.1% bovine serum albumin) and 20 μl of factor XIa from Kordia (0.45 nM in assay buffer). After 15 min of incubation, the enzyme reaction is started by addition of 20 μl of the factor XIa substrate Boc-Glu(OBzl)-Ala-Arg-AMC dissolved in assay buffer (10 μM in assay buffer) from Bachem, the mixture is incubated at room temperature (22° C.) for 30 min and fluorescence is then measured (excitation: 360 nm, emission: 460 nm). The measured emissions of the test batches with test substance are compared to those of control batches without test substance (only dimethyl sulphoxide instead of test substance in dimethyl sulphoxide), and IC50 values are calculated from the concentration/activity relationships.
By pIC50 is commonly meant the negative decadic logarithm of the IC50, by convention in mol/L. Low values mean a high IC50, high ones a low IC50. Compound `CCN(CC)CCNC(=O)c1ccc(-c2cccc(C[C@H](NC(=O)[C@H]3CC[C@H](CN)CC3)C(=O)Nc3ccc4cn[nH]c4c3)c2)cc1` [Example 53, 3′-[(2S)-2-({[trans-4-(Aminomethyl)cyclohexyl]carbonyl}amino)-3-(1H-indazol-6-ylamino)-3-oxopropyl]-N-[2-(diethylamino)ethyl]biphenyl-4-carboxamide hydrochloride] showed a pIC50 of 7.77.

Take `NC[C@H]1CC[C@H](C(=O)N[C@@H](Cc2cccc(-c3cnc(N4CCOCC4)nc3)c2)C(=O)Nc2ccc(-c3n[nH]c(=O)[nH]3)cc2)CC1` [Example 88, N-alpha-{[trans-4-(Aminomethyl)cyclohexyl]carbonyl}-3-[2-(morpholin-4-yl)pyrimidin-5-yl]-N-[4-(5-oxo-4,5-dihydro-1H-1,2,4-triazol-3-yl)phenyl]-L-phenylalaninamide hydrochloride]: the pIC50 is 7.54.

`NCCNC(=O)c1ccc(-c2cccc(C[C@H](NC(=O)[C@H]3CC[C@H](CN)CC3)C(=O)Nc3ccc4cn[nH]c4c3)c2)cc1` [Example 50, N-(2-Aminoethyl)-3′-[(2S)-2-({[trans-4-(aminomethyl)cyclohexyl]carbonyl}amino)-3-(1H-indazol-6-ylamino)-3-oxopropyl]biphenyl-4-carboxamide hydrochloride] had a pIC50 of 7.26.

As to `Cc1ccc(C[C@H](NC(=O)[C@H]2CC[C@H](CN)CC2)C(=O)Nc2ccc(-c3nnn[nH]3)cc2)cc1-c1cccc(C(=O)NCCOCCOCCO)c1` [Example 28, 5′-[(2S)-2-({[trans-4-(Aminomethyl)cyclohexyl]carbonyl}amino)-3-oxo-3-{[4-(1H-tetrazol-5-yl)phenyl]amino}propyl]-N-{2-[2-(2-hydroxyethoxy)ethoxy]ethyl}-2′-methylbiphenyl-3-carboxamide hydrochloride], the pIC50 was 8.28.

`Cc1ccc(S(=O)(=O)N(C)C)cc1-c1cccc(C[C@H](NC(=O)[C@H]2CC[C@H](CN)CC2)C(=O)Nc2ccc(-c3noc(=O)[nH]3)cc2)c1` [Example 23, trans-4-(Aminomethyl)-N-[(2S)-3-[5′-(dimethylsulphamoyl)-2′-methylbiphenyl-3-yl]-1-oxo-1-{[4-(5-oxo-4,5-dihydro-1,2,4-oxadiazol-3-yl)phenyl]amino}propan-2-yl]cyclohexanecarboxamide hydrochloride] showed a pIC50 of 8.44.

For `CN1CCN(c2cc(-c3cccc(C[C@H](NC(=O)[C@H]4CC[C@H](CN)CC4)C(=O)Nc4ccc5[nH]c(=O)[nH]c5c4)c3)ccn2)CC1` [Example 76, N-alpha-{[trans-4-(Aminomethyl)cyclohexyl]carbonyl}-3-[2-(4-methylpiperazin-1-yl)pyridin-4-yl]-N-(2-oxo-2,3-dihydro-1H-benzimidazol-5-yl)-L-phenylalaninamide hydrochloride], the pIC50 was 7.23.

Turning to `COCc1nnc(-c2ccc(NC(=O)[C@H](Cc3cccc(-c4ccccc4C(C)C)c3)NC(=O)[C@H]3CC[C@H](CN)CC3)cc2)[nH]1` [Example 104, trans-4-(Aminomethyl)-N-[(2S)-3-(2′-isopropylbiphenyl-3-yl)-1-({4-[3-(methoxymethyl)-4H-1,2,4-triazol-5-yl]phenyl}amino)-1-oxopropan-2-yl]cyclohexanecarboxamide hydrochloride], the pIC50 is 8.07.

`NC[C@H]1CC[C@H](C(=O)N[C@@H](Cc2cccc(-c3ccc(C(=O)N4CCOCC4)cc3)c2)C(=O)Nc2ccc(-c3nnc(Cl)[nH]3)cc2)CC1` [Example 26, trans-4-(Aminomethyl)-N-{(2S)-1-{[4-(3-chloro-4H-1,2,4-triazol-5-yl)phenyl]amino}-3-[4′-(morpholin-4-ylcarbonyl)biphenyl-3-yl]-1-oxopropan-2-yl}cyclohexanecarboxamide hydrochloride] showed a pIC50 of 8.35.

In turn, `NC[C@H]1CC[C@H](C(=O)N[C@@H](Cc2cccc(-c3cnc(O)nc3)c2)C(=O)Nc2ccc(-c3nnn[nH]3)cc2)CC1` [Example 99, N-alpha-{[trans-4-(Aminomethyl)cyclohexyl]carbonyl}-3-(2-hydroxypyrimidin-5-yl)-N-[4-(1H-tetrazol-5-yl)phenyl]-L-phenylalaninamide hydrochloride] gave a pIC50 of 8.05.

Compound `CN1CCN(c2ccc(-c3cccc(C[C@H](NC(=O)[C@H]4CC[C@H](CN)CC4)C(=O)Nc4ccc(-c5nnn[nH]5)cc4)c3)cn2)CC1` [Example 77, N-alpha-{[trans-4-(Aminomethyl)cyclohexyl]carbonyl}-3-[6-(4-methylpiperazin-1-yl)pyridin-3-yl]-N-[4-(1H-tetrazol-5-yl)phenyl]-L-phenylalaninamide hydrochloride] showed a negative-log IC50 (pIC50) of 8.14.

`CN1CCN(c2ncc(-c3cccc(C[C@H](NC(=O)[C@H]4CC[C@H](CN)CC4)C(=O)Nc4ccc(-c5nnn[nH]5)cc4)c3)cn2)CC1` [Example 69, N-alpha-{[trans-4-(Aminomethyl)cyclohexyl]carbonyl}-3-[2-(4-methylpiperazin-1-yl)pyrimidin-5-yl]-N-[4-(1H-tetrazol-5-yl)phenyl]-L-phenylalaninamide hydrochloride]: the pIC50 was 8.31.

Compound `Cc1cc(C(=O)NCCOCCOCCO)ccc1-c1cccc(C[C@H](NC(=O)[C@H]2CC[C@H](CN)CC2)C(=O)Nc2ccc(-c3nnn[nH]3)cc2)c1` [Example 25, 3′-[(2S)-2-({[trans-4-(Aminomethyl)cyclohexyl]carbonyl}amino)-3-oxo-3-{[4-(1H-tetrazol-5-yl)phenyl]amino}propyl]-N-{2-[2-(2-hydroxyethoxy)ethoxy]ethyl}-2-methylbiphenyl-4-carboxamide hydrochloride] had a pIC50 of 8.36.

In turn, `NC[C@H]1CC[C@H](C(=O)N[C@@H](Cc2cccc(-c3cnc(N4CCOCC4)nc3)c2)C(=O)Nc2ccc(-c3nnn[nH]3)cc2)CC1` [Example 74, N-alpha-{[trans-4-(Aminomethyl)cyclohexyl]carbonyl}-3-[2-(morpholin-4-yl)pyrimidin-5-yl]-N-[4-(1H-tetrazol-5-yl)phenyl]-L-phenylalaninamide hydrochloride] showed a pIC50 of 8.68.

On to `CN(C)c1ccc(-c2cccc(C[C@H](NC(=O)[C@H]3CC[C@H](CN)CC3)C(=O)Nc3ccc(-c4nnn[nH]4)cc3)c2)cn1` [Example 71, N-alpha-{[trans-4-(Aminomethyl)cyclohexyl]carbonyl}-3-[6-(dimethylamino)pyridin-3-yl]-N-[4-(1H-tetrazol-5-yl)phenyl]-L-phenylalaninamide hydrochloride], for which the pIC50 is 8.51.

For `Cc1ccc(S(=O)(=O)N2CCOCC2)cc1-c1cccc(C[C@H](NC(=O)[C@H]2CC[C@H](CN)CC2)C(=O)Nc2ccc(-c3nnn[nH]3)cc2)c1` [Example 3, trans-4-(Aminomethyl)-N-[(2S)-3-[2′-methyl-5′-(morpholin-4-ylsulphonyl)biphenyl-3-yl]-1-oxo-1-{[4-(1H-tetrazol-5-yl)phenyl]amino}propan-2-yl]cyclohexanecarboxamide hydrochloride], the pIC50 was 9.05.

Compound `Cc1ccc(C[C@H](NC(=O)C2CCC(CN)CC2)C(=O)Nc2ccc(-c3nnn[nH]3)cc2)cc1-c1cccc(C(=O)NC2C3CNCC32)c1` (stereo partly drawn) [Example 35, 5′-[(2S)-2-({[trans-4-(Aminomethyl)cyclohexyl]carbonyl}amino)-3-oxo-3-{[4-(1H-tetrazol-5-yl)phenyl]amino}propyl]-N-(3-azabicyclo[3.1.0]hex-6-yl)-2′-methylbiphenyl-3-carboxamide hydrochloride] showed a pIC50 of 8.00.

Turning to `Cc1cnccc1-c1cccc(C[C@H](NC(=O)[C@H]2CC[C@H](CN)CC2)C(=O)Nc2ccc3[nH]c(=O)[nH]c3c2)c1` [Example 75, N-alpha-{[trans-4-(Aminomethyl)cyclohexyl]carbonyl}-3-(3-methylpyridin-4-yl)-N-(2-oxo-2,3-dihydro-1H-benzimidazol-5-yl)-L-phenylalaninamide hydrochloride], the pIC50 was 7.46.

As for `NC[C@H]1CC[C@H](C(=O)N[C@@H](Cc2cccc(-c3cncc(N)c3)c2)C(=O)Nc2ccc(-c3nnn[nH]3)cc2)CC1` [Example 72, N-alpha-{[trans-4-(Aminomethyl)cyclohexyl]carbonyl}-3-(5-aminopyridin-3-yl)-N-[4-(1H-tetrazol-5-yl)phenyl]-L-phenylalaninamide hydrochloride], the pIC50 was 8.28.

The compound `NC[C@H]1CC[C@H](C(=O)N[C@@H](Cc2cccc(-c3ccccc3C(F)(F)F)c2)C(=O)Nc2ccc(-c3nnn[nH]3)cc2)CC1` [Example 84, trans-4-(Aminomethyl)-N-{(25)-1-oxo-1-{[4-(1H-tetrazol-5-yl)phenyl]amino}-3-[2′-(trifluoromethyl)biphenyl-3-yl]propan-2-yl}cyclohexanecarboxamide hydrochloride] showed a negative-log IC50 (pIC50) of 8.51.

Compound `CN1CCN(c2cc(-c3cccc(C[C@H](NC(=O)[C@H]4CC[C@H](CN)CC4)C(=O)Nc4ccc(-c5nnn[nH]5)cc4)c3)ccn2)CC1` [Example 65, N-alpha-{[trans-4-(Aminomethyl)cyclohexyl]carbonyl}-3-[2-(4-methylpiperazin-1-yl)pyridin-4-yl]-N-[4-(1H-tetrazol-5-yl)phenyl]-L-phenylalaninamide hydrochloride] had a pIC50 of 7.92.
